Literature values in patent WO2011084962A1, “Analogs of dehydrophenylahistins” (Nereus Pharmaceuticals Inc, priority 2010, dated 2011).

Experiments:
[1] = system: choroidal neovascularization; details: in vivo
[2] = system: VEGF induced retinal neovascularization; details: in vivo
[3] = system: retinal neovascularization; details: occurs during proliferative retinopathy
[4] = system: neovessels in non-neoplastic tissue; details: in vivo
[5] = system: cell cycle progression in the M phase

Compound | inhibition of cell cycle progression in the M phase [5] | effect on the microtubule assembly (microtubule assembly) | other results
COc1ccc(/C=C\c2cc(OC)c(OC)c(OC)c2)cc1OP(=O)(O)O [CA-4P] |  |  | inhibition of development and/or partial regression of choroidal neovascularization [1]: inhibit the development and/ or cause partial regression of choroidal neovascularization; suppression of the development of VEGF induced retinal neovascularization [2]: suppress the development of VEGF induced retinal neovascularization; inhibition of retinal neovascularization [3]: inhibit the retinal neovascularization that occurs during proliferative retinopathy
COc1ccc(/C=C\c2cc(OC)c(OC)c(OC)c2)cc1O [Combretastatin A-4] |  |  | disruption of neovessels in non-neoplastic tissue [4]: cause the disruption of neovessels in non-neoplastic tissue
COc1ccc2c(C[C@@H]3NC(=O)[C@@H]4CCCN4C3=O)c(CC=C(C)C)[nH]c2c1 [tryprostatin A] | inhibited cell cycle progression in the M phase | affect the microtubule assembly | 
CC(C)=CCc1[nH]c2ccccc2c1C[C@@H]1NC(=O)[C@@H]2CCCN2C1=O [tryprostatin B] | inhibited cell cycle progression in the M phase | affect the microtubule assembly | 
